According to patent US20190218214A1, “Inhibition of BMP Signaling Compounds, Compositions and Uses Thereof” (Vanderbilt University, priority 2016, published 2019):
pIC50, pKi: −log10 of the molar value.

What was measured:
BMP4 = BMP4 biological assay (Table 3); assay type: cell-based
ALK1 = ALK1 (Homo sapiens, UniProt P37023); experiment: Selectivity Ki, ALK1; assay type: biochemical
ALK2 = biological target: T1, ALK2 (Homo sapiens, UniProt Q04771); experiment: Selectivity Ki, ALK2; assay type: biochemical
T1 sequence (Q04771 21-509): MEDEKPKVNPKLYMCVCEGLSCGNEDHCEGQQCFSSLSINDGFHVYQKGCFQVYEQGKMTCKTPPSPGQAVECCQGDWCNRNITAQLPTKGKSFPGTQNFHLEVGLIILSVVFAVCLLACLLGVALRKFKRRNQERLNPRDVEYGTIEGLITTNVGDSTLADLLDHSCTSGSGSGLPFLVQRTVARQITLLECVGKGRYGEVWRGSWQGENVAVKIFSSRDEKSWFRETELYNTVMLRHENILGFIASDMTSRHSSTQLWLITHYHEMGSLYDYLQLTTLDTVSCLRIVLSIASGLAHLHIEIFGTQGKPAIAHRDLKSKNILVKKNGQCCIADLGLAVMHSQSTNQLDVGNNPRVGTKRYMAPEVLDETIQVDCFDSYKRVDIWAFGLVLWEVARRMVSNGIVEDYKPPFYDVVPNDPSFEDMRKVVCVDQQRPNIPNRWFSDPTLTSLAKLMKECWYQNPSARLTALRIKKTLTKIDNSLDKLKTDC

ALK3 = ALK3 (Homo sapiens, UniProt P36894); experiment: Selectivity Ki, ALK3; assay type: biochemical
[1] = In vitro DMPK intrinsic clearance, human; assay type: in vitro ADME
[2] = In vitro DMPK intrinsic clearance, rat; assay type: in vitro ADME
[3] = Plasma protein binding, human; assay type: in vitro ADME; details: read-out: Plasma protein binding (% Fu) Human
[4] = Plasma protein binding, mouse; assay type: in vitro ADME; details: read-out: Plasma protein binding (% Fu) Mouse
[5] = Plasma protein binding, rat; assay type: in vitro ADME; details: read-out: Plasma protein binding (% Fu) Rat
ALK4 = biological target: T2, ALK4 (Homo sapiens, UniProt P36896); experiment: Selectivity Ki, ALK4; assay type: biochemical
T2 sequence (P36896 24-505): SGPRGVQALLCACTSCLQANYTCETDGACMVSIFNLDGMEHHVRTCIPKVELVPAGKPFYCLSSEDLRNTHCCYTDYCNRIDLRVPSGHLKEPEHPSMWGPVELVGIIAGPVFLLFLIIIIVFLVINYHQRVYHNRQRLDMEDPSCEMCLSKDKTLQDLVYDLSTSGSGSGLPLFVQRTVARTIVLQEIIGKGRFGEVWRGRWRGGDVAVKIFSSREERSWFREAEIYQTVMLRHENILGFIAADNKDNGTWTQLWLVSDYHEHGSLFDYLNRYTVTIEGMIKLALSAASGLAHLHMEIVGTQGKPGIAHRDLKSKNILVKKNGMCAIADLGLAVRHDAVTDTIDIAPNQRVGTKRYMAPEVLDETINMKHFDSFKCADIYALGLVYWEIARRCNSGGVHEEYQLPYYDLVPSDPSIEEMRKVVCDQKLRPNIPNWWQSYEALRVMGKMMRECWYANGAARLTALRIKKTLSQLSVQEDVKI

ALK5 = biological target: T3, ALK5 (Homo sapiens, UniProt P36897); experiment: Selectivity Ki, ALK5; assay type: biochemical
T3 sequence (P36897 34-503): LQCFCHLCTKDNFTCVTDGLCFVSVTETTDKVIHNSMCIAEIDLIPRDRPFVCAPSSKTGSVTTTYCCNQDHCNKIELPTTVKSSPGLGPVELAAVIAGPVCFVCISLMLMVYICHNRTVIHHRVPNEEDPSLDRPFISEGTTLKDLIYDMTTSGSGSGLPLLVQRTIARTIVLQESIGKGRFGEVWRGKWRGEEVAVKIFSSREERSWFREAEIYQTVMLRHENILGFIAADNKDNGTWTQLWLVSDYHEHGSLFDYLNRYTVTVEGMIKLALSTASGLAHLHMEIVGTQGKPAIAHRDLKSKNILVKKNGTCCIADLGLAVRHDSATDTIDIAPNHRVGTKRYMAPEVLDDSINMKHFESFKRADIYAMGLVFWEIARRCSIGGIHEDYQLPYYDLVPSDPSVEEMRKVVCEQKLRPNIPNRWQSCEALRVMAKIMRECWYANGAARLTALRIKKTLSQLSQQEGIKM

ALK6 = ALK6 (Homo sapiens, UniProt O00238); experiment: Selectivity Ki, ALK6; assay type: biochemical
BMPR2 = biological target: T4, BMPR2 (Homo sapiens, UniProt Q13873); experiment: Selectivity Ki, BMPR2; assay type: biochemical
T4 sequence (Q13873 27-1038): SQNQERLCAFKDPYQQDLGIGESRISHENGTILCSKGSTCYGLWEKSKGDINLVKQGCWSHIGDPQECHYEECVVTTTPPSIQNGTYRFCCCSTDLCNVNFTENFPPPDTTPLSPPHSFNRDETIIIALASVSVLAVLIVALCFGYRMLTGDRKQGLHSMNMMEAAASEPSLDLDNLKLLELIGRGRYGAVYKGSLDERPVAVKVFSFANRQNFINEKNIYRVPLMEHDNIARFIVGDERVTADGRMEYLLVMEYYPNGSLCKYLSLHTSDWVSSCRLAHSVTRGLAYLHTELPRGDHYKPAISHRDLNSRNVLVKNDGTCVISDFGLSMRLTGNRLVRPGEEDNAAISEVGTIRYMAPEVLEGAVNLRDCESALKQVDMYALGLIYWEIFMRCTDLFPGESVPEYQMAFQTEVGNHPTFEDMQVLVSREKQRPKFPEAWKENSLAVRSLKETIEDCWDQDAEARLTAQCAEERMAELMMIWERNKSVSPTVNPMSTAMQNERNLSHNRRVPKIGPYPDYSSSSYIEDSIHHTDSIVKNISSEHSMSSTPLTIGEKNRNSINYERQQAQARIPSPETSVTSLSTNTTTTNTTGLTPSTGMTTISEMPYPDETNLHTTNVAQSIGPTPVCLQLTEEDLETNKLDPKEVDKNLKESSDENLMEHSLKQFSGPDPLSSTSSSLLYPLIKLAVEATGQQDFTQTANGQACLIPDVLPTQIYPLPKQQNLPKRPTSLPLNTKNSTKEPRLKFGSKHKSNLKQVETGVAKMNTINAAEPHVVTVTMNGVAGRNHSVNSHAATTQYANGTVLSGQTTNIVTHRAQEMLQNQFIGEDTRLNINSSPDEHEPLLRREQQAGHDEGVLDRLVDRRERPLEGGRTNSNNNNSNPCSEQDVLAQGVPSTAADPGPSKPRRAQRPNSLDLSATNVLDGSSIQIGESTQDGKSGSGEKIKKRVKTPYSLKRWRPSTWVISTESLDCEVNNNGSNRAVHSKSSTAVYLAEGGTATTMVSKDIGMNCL

TGFβR2 = TGFβR2 (Homo sapiens, UniProt P37173); experiment: Selectivity Ki, TGFβR2; assay type: biochemical
AMPK = experiment: Selectivity Ki, AMPK; assay type: biochemical
KDR = KDR (Homo sapiens, UniProt P35968); experiment: Selectivity Ki, KDR; assay type: biochemical
[6] = In vitro DMPK intrinsic clearance, mouse; assay type: in vitro ADME
Hepcidin expression [7] = experiment: In vitro model of Hepcidin expression (HAMP/HPRT1, alone and with BMP-6); assay type: cell-based; details: as compared to control (FIGS. 6-9)
hepcidin expression [8] = experiment: IRIDA animal model, liver hepcidin mRNA 2 hours after injection; assay type: in vivo; details: Tmprss6−/− mice, 2 hours after injecting (FIG. 13)
Procedure: The efficacy of compounds was shown in an IRIDA animal model. Initially, an exemplary dose and time point was determined in wild type mice. Briefly, liver mRNA and proteins were extracted. Hepcidin and Id1 mRNA expression was measured by real-time PCR and Smad 1-5-8 phosphorylation was assayed by Western blot analysis. FIGS. 10A-10D depict the RT-PCR data for various inflammatory markers in the liver. FIGS. 11A and 11B depict the RT-PCR data for Hamp mRNA and Id1 mRNA expression. FIG. 12A-12C depict the results of the Western blot analysis.

[9] = read-out: Intrinsic clearance hCLHEP
[10] = read-out: Intrinsic clearance hCLINT

Sequence of ALK1 (P37023 22-503, species assumed): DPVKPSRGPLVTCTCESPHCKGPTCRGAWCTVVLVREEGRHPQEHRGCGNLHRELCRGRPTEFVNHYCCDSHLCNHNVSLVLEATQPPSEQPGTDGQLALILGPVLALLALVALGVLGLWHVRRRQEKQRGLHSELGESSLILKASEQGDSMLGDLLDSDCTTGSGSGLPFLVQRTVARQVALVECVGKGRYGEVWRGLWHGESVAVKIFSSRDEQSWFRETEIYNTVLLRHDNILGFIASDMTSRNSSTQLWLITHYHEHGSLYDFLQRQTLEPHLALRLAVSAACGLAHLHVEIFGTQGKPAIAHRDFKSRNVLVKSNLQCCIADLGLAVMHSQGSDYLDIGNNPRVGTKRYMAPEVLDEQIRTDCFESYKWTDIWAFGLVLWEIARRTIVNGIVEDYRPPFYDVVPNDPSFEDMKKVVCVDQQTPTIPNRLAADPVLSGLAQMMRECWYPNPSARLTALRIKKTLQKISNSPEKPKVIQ
Sequence of ALK3 (P36894 24-532, species assumed): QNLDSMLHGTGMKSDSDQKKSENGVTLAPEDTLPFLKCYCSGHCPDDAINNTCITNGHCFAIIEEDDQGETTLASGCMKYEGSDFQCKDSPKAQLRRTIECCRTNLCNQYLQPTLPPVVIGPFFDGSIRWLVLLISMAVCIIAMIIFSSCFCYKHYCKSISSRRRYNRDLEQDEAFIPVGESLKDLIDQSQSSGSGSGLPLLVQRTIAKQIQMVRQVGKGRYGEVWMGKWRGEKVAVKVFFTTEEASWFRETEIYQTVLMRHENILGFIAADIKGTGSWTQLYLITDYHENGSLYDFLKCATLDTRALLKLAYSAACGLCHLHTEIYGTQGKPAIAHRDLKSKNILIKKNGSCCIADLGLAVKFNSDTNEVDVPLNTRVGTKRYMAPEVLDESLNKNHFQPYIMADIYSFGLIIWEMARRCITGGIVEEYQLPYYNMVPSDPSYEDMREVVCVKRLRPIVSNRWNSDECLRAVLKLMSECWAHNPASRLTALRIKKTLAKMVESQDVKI
Sequence of KDR (P35968 20-1356, species assumed): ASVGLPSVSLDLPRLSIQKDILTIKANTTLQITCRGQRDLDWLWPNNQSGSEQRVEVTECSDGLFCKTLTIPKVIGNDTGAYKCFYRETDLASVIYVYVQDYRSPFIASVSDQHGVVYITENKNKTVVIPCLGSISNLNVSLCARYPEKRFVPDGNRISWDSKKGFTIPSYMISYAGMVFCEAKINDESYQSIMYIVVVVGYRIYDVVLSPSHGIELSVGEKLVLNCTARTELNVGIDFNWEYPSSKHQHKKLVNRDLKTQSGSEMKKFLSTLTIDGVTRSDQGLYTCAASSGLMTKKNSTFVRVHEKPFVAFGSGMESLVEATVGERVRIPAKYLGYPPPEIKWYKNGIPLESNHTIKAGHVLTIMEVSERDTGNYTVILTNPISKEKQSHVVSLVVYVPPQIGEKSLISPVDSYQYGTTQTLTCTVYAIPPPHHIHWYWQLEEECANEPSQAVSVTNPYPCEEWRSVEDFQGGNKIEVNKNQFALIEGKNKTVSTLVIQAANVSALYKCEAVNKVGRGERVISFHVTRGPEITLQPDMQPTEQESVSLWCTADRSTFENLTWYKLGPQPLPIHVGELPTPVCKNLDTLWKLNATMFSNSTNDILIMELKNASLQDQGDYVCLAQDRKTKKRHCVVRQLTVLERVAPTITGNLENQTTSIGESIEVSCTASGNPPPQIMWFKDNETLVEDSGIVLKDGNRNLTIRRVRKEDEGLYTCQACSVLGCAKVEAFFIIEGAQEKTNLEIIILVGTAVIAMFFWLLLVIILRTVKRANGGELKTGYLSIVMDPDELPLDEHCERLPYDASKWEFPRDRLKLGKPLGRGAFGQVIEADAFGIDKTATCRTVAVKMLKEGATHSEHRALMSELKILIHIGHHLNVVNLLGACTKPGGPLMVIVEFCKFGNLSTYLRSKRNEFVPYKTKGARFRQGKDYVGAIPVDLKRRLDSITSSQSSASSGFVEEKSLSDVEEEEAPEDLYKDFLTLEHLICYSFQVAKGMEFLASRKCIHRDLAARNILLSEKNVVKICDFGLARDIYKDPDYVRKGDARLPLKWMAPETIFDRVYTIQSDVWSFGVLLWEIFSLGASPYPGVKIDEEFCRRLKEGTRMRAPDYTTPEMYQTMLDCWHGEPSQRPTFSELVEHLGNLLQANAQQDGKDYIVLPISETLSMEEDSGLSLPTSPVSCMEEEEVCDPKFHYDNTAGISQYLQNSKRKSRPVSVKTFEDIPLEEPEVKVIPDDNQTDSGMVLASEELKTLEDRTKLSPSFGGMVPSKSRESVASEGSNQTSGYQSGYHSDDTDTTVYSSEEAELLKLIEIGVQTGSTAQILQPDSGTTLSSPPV
Sequence of TGFβR2 (P37173 23-567): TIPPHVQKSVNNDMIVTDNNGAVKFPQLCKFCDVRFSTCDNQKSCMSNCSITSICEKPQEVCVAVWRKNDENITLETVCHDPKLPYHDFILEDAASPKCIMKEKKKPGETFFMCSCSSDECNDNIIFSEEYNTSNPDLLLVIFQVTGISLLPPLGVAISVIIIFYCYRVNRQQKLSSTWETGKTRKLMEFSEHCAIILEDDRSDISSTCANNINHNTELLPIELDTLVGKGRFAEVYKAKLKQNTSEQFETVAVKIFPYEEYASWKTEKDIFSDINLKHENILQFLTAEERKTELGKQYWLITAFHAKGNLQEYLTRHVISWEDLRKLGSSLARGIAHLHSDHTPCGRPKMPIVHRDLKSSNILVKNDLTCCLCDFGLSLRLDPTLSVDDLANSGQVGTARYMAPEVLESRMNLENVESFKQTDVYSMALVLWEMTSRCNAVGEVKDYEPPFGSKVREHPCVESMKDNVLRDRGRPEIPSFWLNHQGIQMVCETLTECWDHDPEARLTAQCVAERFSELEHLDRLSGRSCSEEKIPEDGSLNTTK
Sequence of ALK6 (O00238 14-502): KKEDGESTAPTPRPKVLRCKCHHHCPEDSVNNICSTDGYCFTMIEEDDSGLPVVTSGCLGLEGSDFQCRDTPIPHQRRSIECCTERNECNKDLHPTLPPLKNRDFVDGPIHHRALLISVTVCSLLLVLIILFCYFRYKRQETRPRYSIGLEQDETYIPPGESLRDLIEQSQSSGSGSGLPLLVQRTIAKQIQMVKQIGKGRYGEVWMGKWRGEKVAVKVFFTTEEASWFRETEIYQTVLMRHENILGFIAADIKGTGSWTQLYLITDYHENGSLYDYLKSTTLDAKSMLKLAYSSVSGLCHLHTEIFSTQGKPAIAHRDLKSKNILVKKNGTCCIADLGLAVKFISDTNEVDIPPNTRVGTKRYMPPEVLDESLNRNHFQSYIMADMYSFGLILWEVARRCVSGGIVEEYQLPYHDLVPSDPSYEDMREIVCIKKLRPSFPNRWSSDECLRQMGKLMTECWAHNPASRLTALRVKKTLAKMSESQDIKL

pIC50 (BMP4)	pKi (ALK1)	pKi (ALK2)	pKi (ALK3)	CLint scaled [1, 9] [mL/min/kg]	CLint scaled [1, 10] [mL/min/kg]	fraction unbound [3]	fraction unbound [4]	SMILES	also measured
6.41	6.75	8.14	7.46	6.1	8.6	0.021	0.009	Cc1cc(-c2cnc3cc(-c4ccc(C5CCN(C(C)C)CC5)cc4)ccn23)c2cc(F)ccc2n1 [Compound 168]	CLint scaled ([2]; read-out: Intrinsic clearance rCLHEP): 14.5 mL/min/kg; CLint scaled ([2]; read-out: Intrinsic clearance rCLINT): 18.2 mL/min/kg; fraction unbound [5]: 0.014
6.73	5.37	6.47	> 8.29	19.6	294	0.012	0.058	COc1ccc2nc(C)cc(-c3cnc4cc(-c5ccc(N6CCN(C(C)=O)CC6)cc5)ccn34)c2c1 [Compound 48]	pKi (ALK4): 6.84; pKi (ALK5): 6.50; pKi (ALK6): 6.02; pKi (BMPR2): < 4.52; pKi (TGFβR2): 6.71; pKi (AMPK): 5.06; pKi (KDR): 5.06; CLint scaled ([6]; read-out: Intrinsic clearance mCLHEP): 71.5 mL/min/kg; CLint scaled ([6]; read-out: Intrinsic clearance mCLINT): 349 mL/min/kg; Hepcidin expression (Hepcidin expression [7]): reduced Hepcidin expression as compared to control; Liver hepcidin mRNA expression (hepcidin expression [8]): reduction of hepcidin expression
